In patent US20190194179A1, “ANTIBIOTIC COMPOUNDS” (DISCUVA LTD., priority 2016, published 2019):

These compounds were tested on Neisseria gonorrhoeae (assay: EC50 determination: plate-based broth growth assay (absorbance at 600 nm) of Neisseria gonorrhoeae). Settings: absorbance 600 nm after 20 hours at 37° C./5% CO2, read-out: IC50 (Inhibitory concentration) against Neisseria gonorrhoeae.
Assay type: cell-based
In short: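 Mid-log culture diluted to ~10^5 cells/ml as inoculum and grown 20 hours at 37° C./5% CO2 across a 10-point compound dilution series. Growth read as absorbance at 600 nm; EC50 taken from transformed data as the concentration giving 50% response relative to no-compound controls.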

Q: `FC(F)(F)c1cc2nc(Nc3nnco3)oc2cc1Cl` [Example 138, 6-Chloro-N-(1,3,4-oxadiazol-2-yl)-5-(trifluoromethyl)benzo[d]oxazol-2-amine] was tested. Which IC50 did it give?
A: The IC50 was at most 100 nM.

Q: For `CCOC(=O)c1nnc(Nc2nc3cc(C(F)(F)F)ccc3[nH]2)o1` [Example 56, Ethyl 5-((5-(trifluoromethyl)-1H-benzo[d]imidazol-2-yl)amino)-1,3,4-oxadiazole-2-carboxylate], which IC50 is on record?
A: The IC50 was at most 1000 nM.

Q: For `O=C(NC1CC1)c1csc(Nc2nc3ccc(C(F)(F)F)cc3o2)n1` [Example 26, N-Cyclopropyl-2-((6-(trifluoromethyl)benzo[d]oxazol-2-yl)amino)thiazole-4-carboxamide], which IC50 is on record?
A: Its IC50 is at most 100 nM.

Q: `NC(=O)c1csc(Nc2nc3cc(Cl)ccc3o2)n1` [Example 99, 2-((5-Chlorobenzo[d]oxazol-2-yl)amino)thiazole-4-carboxamide] was tested. Which IC50 did it give?
A: Its IC50 is at most 1000 nM.

Q: With `CN1CCc2oc(Nc3nc4cc(C(F)(F)F)ccc4o3)nc2C1` [Example 156, 5-Methyl-N-(5-(trifluoromethyl)benzo[d]oxazol-2-yl)-4,5,6,7-tetrahydrooxazolo[4,5-c]pyridin-2-amine] as the compound, how does the IC50 read?
A: Its IC50 is at most 1000 nM.

Q: With `CN1CCC[C@@H]1c1nnc(Nc2nc3cc(C(F)(F)F)ccc3o2)o1` [Example 127, (R)-N-(5-(1-methylpyrrolidin-2-yl)-1,3,4-oxadiazol-2-yl)-5-(trifluoromethyl)benzo[d]oxazol-2-amine] as the compound, how does the IC50 read?
A: The IC50 was at most 1000 nM.

Q: Which IC50 does the source give for `Cc1nnc(Nc2nc3c(F)cccc3[nH]2)o1` [Example 87, N-(4-Fluoro-1H-benzo[d]imidazol-2-yl)-5-methyl-1,3,4-oxadiazol-2-amine] here?
A: Its IC50 is at most 1000 nM.

Q: `Nc1ccc2nc(Nc3nnco3)oc2c1` [Example 195, N^2-(1,3,4-oxadiazol-2-yl)benzo[d]oxazole-2,6-diamine] was tested. Which IC50 did it give?
A: The IC50 was at most 10000 nM.

Q: With `FC(F)(F)c1cc2oc(Nc3nc4ccccc4o3)nc2cn1` [Example 163, N-(Benzo[d]oxazol-2-yl)-6-(trifluoromethyl) oxazolo[4,5-c]pyridin-2-amine] as the compound, how does the IC50 read?
A: Its IC50 is at most 100 nM.

Q: Which IC50 does the source give for `Clc1cc(Cl)c2nc(Nc3nnco3)oc2c1` [Example 45, 4,6-Dichloro-N-(1,3,4-oxadiazol-2-yl)benzo[d]oxazol-2-amine] here?
A: The IC50 was at most 100 nM.

Q: Which IC50 does the source give for `FC(F)(F)c1ccc2oc(Nc3nc4ccccc4[nH]3)nc2c1` [Example 167, N-(1H-Benzo[d]imidazol-2-yl)-5-(trifluoromethyl) benzo[d]oxazol-2-amine] here?
A: The IC50 was at most 1000 nM.

Q: How did the IC50 turn out when `Cc1nnc(Nc2nc3c(Cl)cccc3o2)o1` [Example 119, 4-Chloro-N-(5-methyl-1,3,4-oxadiazol-2-yl)benzo[d]oxazol-2-amine] was run?
A: Its IC50 is at most 1000 nM.

Q: For `Fc1ccc2oc(Nc3nc4cnccc4o3)nc2c1` [Example 160, N-(5-Fluorobenzo[d]oxazol-2-yl)oxazolo[4,5-c]pyridin-2-amine], which IC50 is on record?
A: Its IC50 is at most 100000 nM.

Q: Which IC50 does the source give for `CN1CCN(c2cnc(Nc3nc4ccc(C(F)(F)F)cc4o3)s2)CC1` [Example 35, N-(5-(4-Methylpiperazin-1-yl)thiazol-2-yl)-6-(trifluoromethyl)benzo[d]oxazol-2-amine] here?
A: The IC50 was at most 1000 nM.

Q: How did the IC50 turn out when `COC1CCN(Cc2nnc(Nc3nc4cc(C(F)(F)F)ccc4o3)o2)C1` (stereo not shown) [Example 75, N-(5-((3-Methoxypyrrolidin-1-yl)methyl)-1,3,4-oxadiazol-2-yl)-5-(trifluoromethyl)benzo[d]oxazol-2-amine] was run?
A: The IC50 was at most 1000 nM.

Q: How did the IC50 turn out when `CN(c1nc2ccccc2o1)c1nc2cnc(C(F)(F)F)cc2o1` [Example 169, N-(benzo[d]oxazol-2-yl)-N-methyl-6-(trifluoromethyl)oxazolo[4,5-c]pyridin-2-amine] was run?
A: The IC50 was at most 100000 nM.

Q: Which IC50 does the source give for `COC(=O)c1ccc2nc(Nc3nnco3)oc2c1` [Example 178, Methyl 2-((1,3,4-oxadiazol-2-yl)amino)ben-zo[d]oxazole-6-carboxylate] here?
A: The IC50 was at most 1000 nM.

Q: How did the IC50 turn out when `N#Cc1nnc(Nc2nc3ccc(Cl)cc3o2)o1` [Example 217, 5-((6-Chlorobenzo[d]oxazol-2-yl)amino)-1,3,4-oxadiazole-2-carbonitrile] was run?
A: The IC50 was at most 100 nM.

Q: How did the IC50 turn out when `Cc1nnc(Nc2nc3cc(Cl)ccc3[nH]2)o1` [Example 85, N-(5-Chloro-1H-benzo[d]imidazol-2-yl)-5-methyl-1,3,4-oxadiazol-2-amine] was run?
A: The IC50 was at most 1000 nM.
